Measurements taken from US6235748A, “Oxo-substituted compounds, process of making, and compositions and methods for inhibiting parp activity” (Guilford Pharmaceuticals Inc., priority 2000, dated 2001).
Entries after “also recorded” stand apart in the source; their conditions may differ.

Experiments:
[1] = tested on: NO-mediated vascular failure in endotoxic shock; settings: in vivo; cited from earlier work
recombinant human PARP = biological target: T1, recombinant human PARP (Homo sapiens, UniProt P09874); assay: PARP enzyme assay with purified recombinant human PARP, [3H]NAD; format: biochemical; settings: TABLE VII; 25° C., 15 minutes; read-out: Approximate IC50's
T1 construct: purchased Trevigen (Gaithersburg, Md.)
T1 sequence (P09874 whole entry): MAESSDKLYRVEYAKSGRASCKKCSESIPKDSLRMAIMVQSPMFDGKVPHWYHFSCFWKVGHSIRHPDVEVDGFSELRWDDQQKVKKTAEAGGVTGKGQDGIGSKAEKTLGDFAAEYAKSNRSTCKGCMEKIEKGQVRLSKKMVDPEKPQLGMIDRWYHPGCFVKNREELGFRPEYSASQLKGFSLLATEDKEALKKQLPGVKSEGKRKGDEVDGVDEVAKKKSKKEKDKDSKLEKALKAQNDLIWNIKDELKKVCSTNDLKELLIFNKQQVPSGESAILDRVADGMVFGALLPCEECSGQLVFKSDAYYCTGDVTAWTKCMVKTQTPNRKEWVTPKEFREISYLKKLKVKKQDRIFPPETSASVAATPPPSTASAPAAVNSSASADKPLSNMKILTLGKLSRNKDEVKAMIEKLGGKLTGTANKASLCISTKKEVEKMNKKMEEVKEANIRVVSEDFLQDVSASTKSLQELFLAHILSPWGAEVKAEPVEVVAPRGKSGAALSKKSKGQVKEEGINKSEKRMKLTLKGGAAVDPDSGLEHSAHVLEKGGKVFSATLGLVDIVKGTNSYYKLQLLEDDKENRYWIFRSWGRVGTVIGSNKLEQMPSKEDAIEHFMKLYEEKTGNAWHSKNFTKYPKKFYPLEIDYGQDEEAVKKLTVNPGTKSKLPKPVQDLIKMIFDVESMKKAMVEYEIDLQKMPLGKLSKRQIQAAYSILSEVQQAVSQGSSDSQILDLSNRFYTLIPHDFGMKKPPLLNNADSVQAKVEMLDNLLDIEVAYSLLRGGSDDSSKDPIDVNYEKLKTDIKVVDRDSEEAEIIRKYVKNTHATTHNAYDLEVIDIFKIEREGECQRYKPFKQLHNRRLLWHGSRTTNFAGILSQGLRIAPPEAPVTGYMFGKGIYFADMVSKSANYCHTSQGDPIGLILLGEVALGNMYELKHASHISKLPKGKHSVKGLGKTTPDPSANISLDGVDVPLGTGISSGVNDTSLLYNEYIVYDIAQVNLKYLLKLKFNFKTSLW
Method: The reaction was initiated by incubating the mixture at 25° C. After 15 minutes' incubation, the reaction was terminated by adding 500 microliters of ice cold 20% (w/v) trichloroacetic acid. The precipitate formed was transferred onto a glass fiber filter (Packard Unifilter-GF/B) and washed three times with ethanol. After the filter was dried, the radioactivity is determined by scintillation counting.

[2] = tested on: ischemia and reperfusion of the heart in rabbits; settings: cited from earlier work
[3] = tested on: focal cerebral ischemia in male Long-Evans rats; assay: Infarct in focal cerebral ischemia: distal MCA cauterization with bilateral temporary CCA occlusion; format: in vivo, rat (Long-Evans); settings: for damaged (infarct) volume: mean±SD; for cross-sectional infarct area distribution, result in words: FIG. 1
Method: (§1) Focal cerebral ischemia was produced by cauterization of the right distal MCA (middle cerebral artery) with bilateral temporary common carotid artery occlusion in male Long-Evans rats for 90 minutes. All procedures performed on the animals were approved by the University Institutional Animal Care and Use Committee of the University of Pennsylvania. A total of 42 rats (weights: 230-340 g) obtained from Charles River were used in this study. The animals fasted overnight with free access to water prior to the surgical procedure.
(§2) Two hours prior to MCA occlusion, varying amounts (control, n=14; 5 mg/kg, n=7; 10 mg/kg, n=7; 20 mg/kg, n=7; and 40 mg/kg, n=7) of the PARP inhibitor compound, 3,4-dihydro-5-[4-(1-piperidinyl)-butoxy]-1(2H)-isoquinolinone ("DPQ"), were dissolved in dimethyl sulfoxide (DMSO) using a sonicator. A volume of 1.28 ml/kg of the resulting solution was injected intraperitoneally into fourteen rats.
(§3) The rats were then anesthetized with halothane (4% for induction and 0.8%-1.2% for the surgical procedure) in a mixture of 70% nitrous oxide and 30% oxygen. The body temperature was monitored by a rectal probe and maintained at 37.5±0.5° C. with a heating blanket regulated by a homeothermic blanket control unit (Harvard Apparatus Limited, Kent, U.K.). A catheter (PE-50) was placed into the tail artery, and arterial pressure was continuously monitored and recorded on a Grass polygraph recorder (Model 7D, Grass Instruments, Quincy, Mass.). Samples for blood gas analysis (arterial pH, PaO2 and PaCO2) were also taken from the tail artery catheter and measured with a blood gas analyzer (ABL 30, Radiometer, Copenhagen, Denmark). Arterial blood samples were obtained 30 minutes after MCA occlusion.
(§4) The head of the animal was positioned in a stereotaxic frame, and a right parietal incision between the right lateral canthus and the external auditory meatus was made. Using a dental drill constantly cooled with saline, a 3 mm burr hole was prepared over the cortex supplied by the right MCA, 4 mm lateral to the sagittal suture and 5 mm caudal to the coronal suture. The dura mater and a thin inner bone layer were kept, care being taken to position the probe over a tissue area devoid of large blood vessels. The flow probe (tip diameter of 1 mm, fiber separation of 0.25 mm) was lowered to the bottom of the cranial burr hole using a micromanipulator. The probe was held stationary by a probe holder secured to the skull with dental cement. The microvascular blood flow in the right parietal cortex was continuously monitored with a laser Doppler flowmeter (FloLab, Moor, Devon, U.K., and Periflux 4001, Perimed, Stockholm, Sweden).
Focal cerebral ischemia was produced by cauterization of the distal portion of the right MCA with bilateral temporary common carotid artery (CCA) occlusion by the procedure of Chen et al., "A Model of Focal Ischemic Stroke in the Rat: Reproducible Extensive Cortical Infarction", Stroke, 17:738-43 (1986) and/or Liu et al., "Polyethylene Glycol-conjugated Superoxide Dismutase and Catalase Reduce Ischemic Brain Injury", Am. J. Physiol., 256:H589-93 (1989), both of which are hereby incorporated by reference.
Specifically, bilateral CCA's were isolated, and loops made from polyethylene (PE-10) catheter were carefully passed around the CCA's for later remote occlusion. The incision made previously for placement of the laser doppler probe was extended to allow observation of the rostral end of the zygomatic arch at the fusion point using a dental drill, and the dura mater overlying the MCA was cut. […] The burr hole was covered with a small piece of Gelform, and the wound was sutured to maintain the brain temperature within the normal or near-normal range.
After 90 minutes of occlusion, the carotid loops were released, the tail arterial catheter was removed, and all of the wounds were sutured. Gentamicin sulfate (10 mg/ml) was topically applied to the wounds to prevent infection. […]

[4] = Arterial blood gases and mean arterial blood pressure in the focal cerebral ischemia model; format: in vivo, rat (Long-Evans); settings: for MABP, ischemia: average during occlusion; for MABP, steady state: just prior to occlusion
Method: as §1, §2, §3
A "steady state" MABP was taken following completion of the surgical preparation, just prior to occlusion; an "ischemia" MABP was taken as the average MABP during occlusion.

[5] = tested on: right parietal cortex blood flow; assay: Microvascular blood flow in right parietal cortex by laser Doppler flowmetry; format: in vivo, rat (Long-Evans); settings: for relative blood flow in the right parietal cortex on occlusion: control 20.8±7.7%
Method: as §4
Since the blood flow values obtained from the laser doppler were in arbitrary units, only percent changes from the baseline (prior to occlusion) were reported.

colitis in rats = settings: colitis induced by intraluminal trinitrobenzene sulfonic acid in 50% ethanol; cited from earlier work
[6] = tested on: cell viability, glucose metabolism, and DNA synthesis; settings: cited from earlier work
tumor cells = settings: synergy: co-treatment with an alkylating drug; cited from earlier work

NC(=O)c1cccnc1 [nicotinamide]
effect on vascular failure in endotoxic shock, result in words [1]: protects against delayed, NO-mediated vascular failure in endotoxic shock

O=c1[nH]c2cc(F)ccc2c2ccccc12
IC50 (recombinant human PARP): ~200 nM

Oc1cccc2c(O)nccc12 [1,5-dihydroxy-isoquinoline]
reduction in infarct size ([2]; 1 mg/kg): 38-48%

O=C1NCCc2c(OCCCCN3CCCCC3)cccc21 [DPQ, 3,4-dihydro-5-[4-(1-piperidinyl)-butoxy]-1(2H)-isoquinolinone]
damaged (infarct) volume ([3]; 5 mg/kg i.p. 2 h before and 2 h after MCA occlusion, p<0.001 vs control (165.2±34.0 mm^3)): 106.7±23.2 mm^3 | damaged (infarct) volume ([3]; 10 mg/kg i.p. 2 h before and 2 h after MCA occlusion, p<0.001 vs control (165.2±34.0 mm^3)): 76.4±16.8 mm^3 | damaged (infarct) volume ([3]; 20 mg/kg i.p. 2 h before and 2 h after MCA occlusion, p<0.01 vs control (165.2±34.0 mm^3)): 110.2±42.0 mm^3 | infarct volume, result in words ([3]; 40 mg/kg): no significant difference between the control and the 40 mg/kg-treated group | damaged (infarct) volume ([3]; 40 mg/kg i.p. 2 h before and 2 h after MCA occlusion, not significant vs control (165.2±34.0 mm^3)): 135.6±44.8 mm^3 | damaged volume compared to control, result in words ([3]; 5, 10 and 20 mg/kg): significant decrease in the damaged volume | infarct volume, result in words ([3]; overall / dose comparison): significant differences between the 5 mg/kg-treated group and the 10 mg/kg-treated group (p<0.02), and between the 10 mg/kg-treated group and the 40 mg/kg-treated group (p<0.01); also recorded: substantial reduction in infarct volume | PaCO2 ([4]; 5 mg/kg-treated group): 38.0 mm Hg | PaO2 ([4]; 5 mg/kg-treated group): 126 ± 20 mm Hg | arterial pH ([4]; 5 mg/kg-treated group): 7.36 | MABP, ischemia ([4]; 5 mg/kg-treated group, p < 0.01 vs steady state): 91 ± 12 mm Hg | MABP, steady state ([4]; 5 mg/kg-treated group): 78 ± 5 mm Hg | PaCO2 ([4]; 10 mg/kg-treated group): 39.3 mm Hg | PaO2 ([4]; 10 mg/kg-treated group): 125 ± 16 mm Hg | arterial pH ([4]; 10 mg/kg-treated group): 7.34 | MABP, ischemia ([4]; 10 mg/kg-treated group, p < 0.05 vs steady state): 90 ± 14 mm Hg | MABP, steady state ([4]; 10 mg/kg-treated group): 80 ± 9 mm Hg | PaCO2 ([4]; 20 mg/kg-treated group): 41.3 mm Hg | PaO2 ([4]; 20 mg/kg-treated group): 122 ± 14 mm Hg | arterial pH ([4]; 20 mg/kg-treated group): 7.35 | MABP, ischemia ([4]; 20 mg/kg-treated group, p < 0.01 vs steady state): 91 ± 12 mm Hg | MABP, steady state ([4]; 20 mg/kg-treated group): 79 ± 10 mm Hg | PaCO2 ([4]; 40 mg/kg-treated group): 39.5 mm Hg | PaO2 ([4]; 40 mg/kg-treated group): 137 ± 17 mm Hg | arterial pH ([4]; 40 mg/kg-treated group): 7.33 | MABP, ischemia ([4]; 40 mg/kg-treated group, p < 0.05 vs steady state): 88 ± 12 mm Hg | MABP, steady state ([4]; 40 mg/kg-treated group): 78 ± 4 mm Hg | MABP, result in words ([4]; all five groups including control): MABP was significantly elevated following occlusion in all five groups, there were no significant differences in MABP during the occlusion period among the groups | arterial blood gases (PaO2, PaCO2 and pH), result in words ([4]; control and treated groups): within the physiological range in the control and treated groups with no significant differences in these parameters among the five groups | relative blood flow in the right parietal cortex on occlusion ([5]; 5 mg/kg-treated group (n=7)): 18.7±7.4 % of the baseline | relative blood flow in the right parietal cortex on occlusion ([5]; 10 mg/kg-treated group (n=7)): 21.4±7.7 % of the baseline | relative blood flow in the right parietal cortex on occlusion ([5]; 40 mg/kg-treated group (n=7)): 19.3±11.2 % of the baseline | blood flow response to occlusion, result in words ([5]; control, 5, 10 and 40 mg/kg): no significant differences in the blood flow response to occlusion among the four groups

NC(=O)c1cccc(N)c1 [3-aminobenzamide]
reduction in infarct size in the heart ([2]; 10 mg/kg, single injection one minute before occlusion or one minute before reperfusion): 32-42% | effect on colitis, result in words (colitis in rats): reduced the inflammatory response and restored the morphology and the energetic status of the distal colon | effect on other metabolic processes, result in words [6]: shown to affect cell viability, glucose metabolism, and DNA synthesis

O=C1NCCc2c(OCCCCN3CCCCC3)cccc21 [3,4-dihydro-5-[4-(1-piperidinyl)-butoxy]-1(2H)-isoquinolinon] [3,4-dihydro-5-[4-(1-piperidinyl)-butoxy]-1(2H)-isoquinolinone]
cross-sectional infarct area distribution, result in words ([3]; 5 mg/kg and 20 mg/kg): fell approximately halfway between the control and the 10 mg/kg curves | infarct volume, result in words ([3]; 40 mg/kg): less neuroprotective | cross-sectional infarct area distribution, result in words ([3]; 40 mg/kg): close to the control | infarct volume, result in words ([3]; overall / dose comparison): U-shaped dose-response curve

NC(=O)c1ccccc1 [benzamide]
effect on other metabolic processes, result in words [6]: shown to affect cell viability, glucose metabolism, and DNA synthesis

O=c1[nH]c2ccccc2c2ccccc12 [6(5H)-Phenanthridinone]
effect on tumor cells, result in words (tumor cells): reduced proliferation of tumor cells, and a marked synergistic effect when tumor cells are co-treated with this compound and an alkylating drug
